Measurements reported in US20100247485A1, “FORMULATIONS AND DEVICES FOR […] TO […] MICR[…] ARTHOPODS” (MEVLABS, INC., priority 2007, published 2010).

Tested on: Anopheles mosquitoe species
Assay: Lethality of drug to Anopheles mosquitoes
Details: 7 μg/ml (estimated ED 50 of Pyremethamine)

In the case of `CCc1nc(N)nc(N)c1-c1ccc(Cl)cc1` [Pyremethamine], the “lethality to mosquitoes at the estimated ED50” value is reported as “not lethal”.
